Assay results from article PMC4767466, “Identification of a novel platelet antagonist that binds to CLEC-2 and suppresses podoplanin-induced platelet aggregation and cancer metastasis” (Oncotarget, 2015).

Key:
[1] = target: T1, CLEC-2 (C-type lectin-like receptor 2) (Homo sapiens, UniProt Q9P126); test: SPR (Biacore T200, CLEC-2 amine-coupled to CM5 chip, equilibrium fit); format: binding
T1 construct: gene CLEC1B; recombinant CLEC-2

[2] = target: CLEC-2 (Homo sapiens) (UniProt Q9P126); details: cited from earlier work
Sequence of CLEC-2 (Homo sapiens) (Q9P126 whole entry): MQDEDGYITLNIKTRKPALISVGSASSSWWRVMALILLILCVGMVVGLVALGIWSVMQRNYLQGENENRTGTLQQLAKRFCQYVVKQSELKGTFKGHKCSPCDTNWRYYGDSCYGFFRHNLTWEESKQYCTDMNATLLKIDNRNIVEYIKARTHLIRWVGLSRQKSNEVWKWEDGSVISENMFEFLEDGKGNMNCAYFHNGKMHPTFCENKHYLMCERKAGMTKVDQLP

T1 sequence (Q9P126 whole entry): as above

| Kd [1] [µM] | Compound | Kd [2] [µM] |
| --- | --- | --- |
| 33.2 ± 1.9 | O=C(NCCNC(=O)c1cc([N+](=O)[O-])ccc1O)c1ccccc1 [2CP] |  |
|  | podoplanin (from UniProt Q86YL7) | 24.5 |
